Values joined by “and” are separate entries in the source; they are usually repeats but may differ in a detail not shown here. Identical values can stand only once. Like-named read-outs stand apart in the source and are kept apart here.
Legend:
Human Androgen Receptor = Human Androgen Receptor (Homo sapiens (Human), UniProt P10275); experiment: Androgen receptor assay: [3H]R1881 displacement, cytosol of HEK-293 cells transfected with hAR (hydroxylapatite assay); format: binding; conditions: for Human Androgen Receptor Binding RBA (%) R1881 = 100: relative binding affinity
[1] = Oral absorption, Experiment 2: plasma, intraprostatic and intramuscular concentrations after 0.5 mg EM-9150/animal in castrated male rats; format: in vivo; conditions: Sprague-Dawley, rat, po, 0.5 mg/animal
Experimental: Castrated male Sprague-Dawley rats (Crl:CD(SD)Br) weighing 275-375 g were used for pharmacokinetic studies. Animals were fasted (access to water only) from around 16 h00 the afternoon prior to the dosing day.
Blood samples (˜0.5 mL/timepoint) were collected by jugular venipuncture on animals under isoflurane anesthesia at 1, 2, 3, 4, 7 and 24 h post-dosing. Blood samples were put into tubes containing EDTA(K3) as anticoagulant and centrifuged at 4° C. for 10 min at 1700-2400 g. The resulting plasma was frozen on dry ice and kept at −80° C. pending analysis. […] Prostates and bulbocavernosus muscles were frozen in liquid nitrogen and kept at −80° C. until being used. A buffer and an ethanol-acetone solution were added to the tissue and homogenized with a Polytron. The supernatant was collected, evaporated to dryness and reconstituted in buffer.
Intraprostatic and intramuscular concentrations of the compounds were also determined by LC-MS/MS.

[2] = system: castrated (CX) immature male rats; experiment: Systemic androgenic (agonistic) activity in orchidectomized (CX) immature male rats; format: in vivo, rat; conditions: for CX Agonistic activity % Stimulation Bulbo / CX Agonistic activity % Stimulation SV / CX Agonistic activity % Stimulation Prostate: 0.1 mg/rat/po, 7 days; for CX Agonistic activity % Stimulation Bulbo: bulbocavernosus muscles weight; for CX Agonistic activity % Stimulation SV: seminal vesicles weight; for CX Agonistic activity % Stimulation Prostate: ventral prostate weight
[3] = system: PSA levels in human prostatic carcinoma LNCaP cells; experiment: Prostate specific antigen (PSA) in LNCaP cells with or without R1881; format: cell-based
Experimental: LNCaP cells were cultured as previously described (Qi et al. 2001). In brief, the LNCaP cells were cultured for 6 days in 1.0 ml RPMI 1640 supplemented with hormone-depleted 0.25% FCS before each experiment. At the start of the experiment, half of the medium (0.5 ml) was replaced with 0.5 ml of identical medium containing the appropriate concentrations of tested compounds, in the presence or absence of 1.0 nM of R1881. After 72 h of incubation of LNCaP cells with compounds, 0.5 ml of culture medium was removed for PSA determination. PSA levels were measured using the PSA [^125I] IRMA KIT (REF: RK-10CT) from Izotop (Institute of Isotopes Ltd, Budapest, Hungary).

Rat Androgen Receptor = Rat Androgen Receptor (Rattus norvegicus (Rat), UniProt P15207); experiment: Androgen receptor assay: [3H]R1881 displacement, rat prostate cytosol; format: binding
Experimental: On the morning of the binding assay, ventral prostates collected from 24 h-gonadectomized rats were homogenized in buffer A (1 g of tissue in 5 mL) and the homogenate was centrifuged as described above.
Androgen binding is measured using the hydroxylapatite (HAP) assay. In brief, the radioactive steroid [^3H]R1881 solubilized in ethanol is diluted with buffer B (10 mM Tris-HCl, 1.5 mM EDTA disodium salt, 10 mM α-monothioglycerol, pH 7.4). Aliquots of the cell or prostate cytosol preparation (0.1 ml) are then incubated with 5 nM [^3H]R1881 (0.1 ml, ˜100 000 cpm) in the presence or absence of the indicated concentrations of unlabeled compounds (0.1 ml, prepared in buffer B containing 30% ethanol) for 16-18 h at 0-4° C. Triamcinolone acetonide (TAC; 100 nM) is added to mask progesterone receptors. Unbound steroids are separated by incubation for 40 min at 0-4° C. with 0.3 ml HAP prepared in buffer P (50 mM Tris-HCl, 10 mM KH2PO4, pH 7.4). After incubation with HAP and 10 min of centrifugation at 1000×g, the pellet is washed 3 times with 1 ml of buffer P. Thereafter, the radioactivity is extracted from the pellet by incubation at room temperature for 60 min with 1 ml of ethanol. After centrifugation, the supernatant is decanted into a scintillation vial and the pellet is extracted again with ethanol. After the addition of scintillation liquid, the radioactivity is measured in a liquid scintillation counter.
Relative binding affinity (RBA) was calculated by the following formula: RBA (%) [IC50(R1881)/IC50 (compound)]×100 B—In Vitro Assay of Androgenic/Antiandrogenic Activity

[4] = system: Shionogi mouse mammary carcinoma cells; experiment: In vitro androgenic/antiandrogenic activity: proliferation of Shionogi cells with or without DHT; format: cell-based; conditions: for IC50: Mus musculus, read-out: Shionogi Antiandrogenic Activity IC50, DHT (0.3 nM)-stimulated cell number
Androgen Receptor = experiment: Overall classification (antiandrogen / SARM) in the models studied
[5] = system: castrated (CX) immature male rats; experiment: Systemic androgenic (agonistic) activity in orchidectomized (CX) immature male rats; format: in vivo; conditions: 0.1 mg/rat, s.c. (subcutaneous)
[6] = system: intact immature male rats; experiment: Activity in intact immature male rats; format: in vivo, rat
Experimental: Immature male rats (Crl:CD(SD)Br) 22 to 24-day old weighting 60-80 g at start of treatment were obtained from Charles-River, Inc. (St-Constant, Quebec, Canada) and housed up to 5 per cage in plastic bins in a temperature (23±1° C.)- and light (12 h light/day, lights on at 7 h15)-controlled environment. The rats were fed rodent chow and tap water ad libitum. […] The day following their arrival, the designed animals were orchidectomized (CX) under Isoflurane anesthesia (Study Day 1) via the scrotal route and were then randomly assigned to groups of 3 to 5 animals. At the time of orchidectomy, one silastic implant of dihydrotestosterone (DHT; 1 cm length of pure DHT in silastic tubing having inner and outer diameter of 0.078 and 0.125 inches, respectively), was inserted subcutaneously in the dorsal area of animals assigned to the evaluation of antiandrogenic activity. In the case of intact animal experiments, the orchidectomy and the silastic implant installation are omitted.
Tested compounds were administered orally once daily for 7 days from Study Day 2 to Study Day 8 at doses generally ranging from 0.1 and 0.5 mg/animal. Compounds were either solubilized in dimethylsulfoxide (DMSO, 10% final concentration) and were administered as a solution/suspension in 0.9% NaCl-1% gelatin or were administered as suspensions in 0.4% aqueous methylcellulose. Animals of the control groups received the corresponding vehicle alone during the 7-day period. Some animals were treated with the antiandrogen Flutamide or Casodex as reference. The animals under isoflurane anesthesia were killed by cervical dislocation on day 9 of the study, approximately 24 h after the last dosing. The ventral prostate, seminal vesicles and bulbocavernosus muscles were rapidly dissected and weighed.
For calculations with intact animals, control DHT is replaced by control intact and the % stimulation is subtracted by 100%. W is the weight of the prostate, seminal vesicles or bulbocavernosus muscles. Discussion

[7] = Oral absorption, Experiment 1: plasma levels after single oral 20 mg EM-9150/kg in intact male rats (LC-MS/MS); format: in vivo, rat; conditions: metabolite after oral EM-9150
Experimental: Intact 6 week-old male rats (Crl:CD(SD)) weighing 150-205 g were obtained from Charles-River Canada Inc. (St-Constant, Quebec, Canada) and housed up to 3 per cage in plastic bins in a temperature (19° C. to 25° C.)- and light (12 h light/day)-controlled environment. They were acclimatized to laboratory conditions for 2 weeks prior to the pharmacokinetic (PK) study. The rats were fed rodent chow (PMI Nutrition International Certified Rodent Chow No. 5CR4 (14% protein)) and tap water ad libitum. Animals were weighing 165-200 g at the time of dosing.
Blood samples (˜0.4 mL/timepoint/rat) were collected by jugular venipuncture at 0.5, 1, 2, 3.5, 7 and 24 h post-dosing from 3 animals/timepoint. Blood samples were put into tubes containing EDTA(K3) as anticoagulant and centrifuged at 4° C. for 10 min at 2700 rpm. The resulting plasma was separated and transferred to 2 polypropylene tubes, frozen immediately over dry ice and kept in a freezer set to maintain −80° C. until analysis.

[8] = immature castrated rat, oral 7 days

Sequence of Human Androgen Receptor (P10275 whole entry): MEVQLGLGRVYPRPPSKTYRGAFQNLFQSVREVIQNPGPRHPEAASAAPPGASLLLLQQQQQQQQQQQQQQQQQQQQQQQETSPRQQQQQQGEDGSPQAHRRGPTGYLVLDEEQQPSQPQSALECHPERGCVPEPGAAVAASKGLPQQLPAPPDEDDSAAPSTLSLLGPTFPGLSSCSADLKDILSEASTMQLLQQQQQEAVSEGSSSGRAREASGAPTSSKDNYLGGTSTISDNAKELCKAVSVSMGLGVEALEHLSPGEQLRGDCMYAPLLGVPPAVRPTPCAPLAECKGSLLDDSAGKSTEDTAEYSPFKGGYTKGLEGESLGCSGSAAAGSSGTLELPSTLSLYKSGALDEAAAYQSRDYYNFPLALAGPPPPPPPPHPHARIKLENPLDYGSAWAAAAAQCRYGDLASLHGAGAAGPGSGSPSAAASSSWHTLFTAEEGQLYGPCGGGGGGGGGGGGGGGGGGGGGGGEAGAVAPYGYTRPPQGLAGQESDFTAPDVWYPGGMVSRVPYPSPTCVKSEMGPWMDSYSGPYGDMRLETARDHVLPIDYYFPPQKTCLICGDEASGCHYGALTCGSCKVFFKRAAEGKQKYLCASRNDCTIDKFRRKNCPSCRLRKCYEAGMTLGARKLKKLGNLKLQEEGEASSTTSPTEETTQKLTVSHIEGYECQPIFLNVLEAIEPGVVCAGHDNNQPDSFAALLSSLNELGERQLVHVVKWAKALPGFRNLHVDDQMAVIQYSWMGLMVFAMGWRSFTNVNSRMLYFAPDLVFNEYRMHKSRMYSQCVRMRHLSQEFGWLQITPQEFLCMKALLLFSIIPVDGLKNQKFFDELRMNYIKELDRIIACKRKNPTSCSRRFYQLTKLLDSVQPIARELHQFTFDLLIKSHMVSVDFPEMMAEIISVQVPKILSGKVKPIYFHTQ
Sequence of Rat Androgen Receptor (P15207 whole entry, looked up): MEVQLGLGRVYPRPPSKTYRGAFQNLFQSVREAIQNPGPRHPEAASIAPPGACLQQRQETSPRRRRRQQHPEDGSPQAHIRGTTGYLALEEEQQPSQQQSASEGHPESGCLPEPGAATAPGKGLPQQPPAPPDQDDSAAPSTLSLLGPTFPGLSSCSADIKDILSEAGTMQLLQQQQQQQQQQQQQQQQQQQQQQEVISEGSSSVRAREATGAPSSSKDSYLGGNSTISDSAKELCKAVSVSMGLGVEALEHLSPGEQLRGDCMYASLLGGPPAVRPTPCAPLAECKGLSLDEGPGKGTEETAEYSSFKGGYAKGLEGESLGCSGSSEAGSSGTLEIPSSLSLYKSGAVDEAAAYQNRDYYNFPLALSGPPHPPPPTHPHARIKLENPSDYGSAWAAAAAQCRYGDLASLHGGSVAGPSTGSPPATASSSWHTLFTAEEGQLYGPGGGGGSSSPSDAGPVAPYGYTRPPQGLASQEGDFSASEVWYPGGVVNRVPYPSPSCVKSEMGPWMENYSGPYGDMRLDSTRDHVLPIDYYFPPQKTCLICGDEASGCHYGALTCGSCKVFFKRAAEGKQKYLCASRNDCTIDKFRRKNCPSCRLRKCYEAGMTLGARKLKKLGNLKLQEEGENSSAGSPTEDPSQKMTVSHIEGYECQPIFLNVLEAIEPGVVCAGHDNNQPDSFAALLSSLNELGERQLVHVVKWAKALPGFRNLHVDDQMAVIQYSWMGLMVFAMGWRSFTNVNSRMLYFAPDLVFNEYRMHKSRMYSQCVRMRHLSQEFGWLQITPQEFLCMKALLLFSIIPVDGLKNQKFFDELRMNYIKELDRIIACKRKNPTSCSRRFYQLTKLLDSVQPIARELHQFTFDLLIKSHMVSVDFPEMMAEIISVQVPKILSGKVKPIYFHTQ

**Q.** What does the source list for CC1(C)C(=O)N(c2ccc(C#N)c(Cl)c2)C(=O)N1CCCOc1ccc(-c2cc[n+]([O-])cc2)cc1Cl [EM-9156]?
**A.** times more potent than bicalutamide to displace R1881 from the human AR (Human Androgen Receptor; versus bicalutamide): 57 times; concentration at 7 h ([1]; bulbocavernosus muscles, read-out: intramuscular concentration): 12.7 ng/g; concentration at 7 h ([1]; plasma, read-out: plasma concentration): 22.3 ng/mL; concentration at 7 h ([1]; ventral prostate, read-out: intraprostatic concentration): 19.3 ng/g; CX Agonistic activity % Stimulation Bulbo [2]: 5%; CX Agonistic activity % Stimulation SV [2]: 0%; CX Agonistic activity % Stimulation Prostate [2]: 1%; agonistic activity on ventral prostate weight (in words) ([2]; daily oral dosing for 7 days, immature castrated rat): no agonistic activity; inhibition at 0.1 µM ([3]; Homo sapiens, LNCaP, read-out: LNCaP Cells Antiandrogenic activity (PSA) % inhibition at 10^−7M, R1881-stimulated, 10^−7M of compound): ~50%; times more potent than bicalutamide in blocking R1881-stimulated PSA secretion ([3]; LNCaP, versus bicalutamide): 9.2 times and 10 times; stimulation at 10^−7M of basal PSA levels in LNCaP cells (in words) ([3]; basal (no R1881), 10^−7M): absence of stimulation; Rat Androgen Receptor Binding RBA (%) R1881 = 100 (Rat Androgen Receptor): 5.3%; times more potent than OH-flutamide in the rat AR assay (Rat Androgen Receptor; versus OH-flutamide): 53 times; times more potent than bicalutamide in the rat AR assay (Rat Androgen Receptor; versus bicalutamide): 27 times; stimulation at 10^−7M on basal Shionogi cell proliferation (in words) ([4]; basal (no DHT), 10^−7M): absence of stimulation; classification as antiandrogen or SARM (in words) (Androgen Receptor): antiandrogens

**Q.** Which results are given for C[C@]12CC[C@H]3[C@@H](CCC4=CC(=O)CC[C@@]43C)[C@@H]1CC[C@@H]2O [Testosterone]?
**A.** CX Agonistic activity % Stimulation Bulbo [5]: 171%; CX Agonistic activity % Stimulation Prostate [5]: 99%

**Q.** With Cc1c(N2C(=O)N(CCCOc3ccc(-c4ccncc4)cc3Cl)C(C)(C)C2=O)ccc(C#N)c1Cl [EM-9251] as the compound, how does the “activity on the bulbocavernosus muscles (in words)” value ([6]; immature intact rat) read?
**A.** agonistic activity

**Q.** And the “activity on the prostate and seminal vesicles (in words)” value ([6]; immature intact rat)?
**A.** antagonistic activity

**Q.** And the “inhibition of intact rat prostate” value ([6]; intact immature rat, 7 days)?
**A.** 25±4%

**Q.** And the “inhibition of intact rat seminal vesicles” value ([6]; intact immature rat, 7 days)?
**A.** 35±7%

**Q.** What about the “stimulation of the bulbocavernosus muscles in intact rat” value ([6]; intact immature rat, 7 days) of the same compound?
**A.** 77±6%

**Q.** What about the “Human Androgen Receptor Binding RBA (%) R1881 = 100” value (Human Androgen Receptor) of the same compound?
**A.** 253%

**Q.** What about the “times more potent than OH-flutamide on the human AR (RBA ratio)” value (Human Androgen Receptor; versus hydroxyflutamide) of the same compound?
**A.** 1200 times

**Q.** And the “CX Agonistic activity % Stimulation Bulbo” value [2]?
**A.** 119±24% and 119 ± 24 (n = 2) %

**Q.** And the “CX Agonistic activity % Stimulation SV” value [2]?
**A.** 27 ± 1 (n = 2) %

**Q.** And the “CX Agonistic activity % Stimulation Prostate” value [2]?
**A.** 41 ± 2 (n = 2) %

**Q.** And the “activity on the bulbocavernosus muscles (in words)” value [2, 8]?
**A.** agonistic activity

**Q.** And the “activity on the prostate and seminal vesicles (in words)” value [2, 8]?
**A.** mixed agonistic-antagonistic activity

**Q.** What about the IC50 [4] of the same compound?
**A.** 67.7 nM

**Q.** What about the “% of stimulation at 10^−7M on basal Shionogi cells” value ([4]; basal (no DHT), 10^−7M) of the same compound?
**A.** 38%

**Q.** And the “classification as antiandrogen or SARM (in words)” value (Androgen Receptor)?
**A.** selective androgen receptor modulators

**Q.** What does the source list for CC1(C)NC(=O)N(c2ccc(C#N)c(Cl)c2)C1=O [EM-9260]?
**A.** Human Androgen Receptor Binding RBA (%) R1881 = 100 (Human Androgen Receptor): ~0.1%; CX Agonistic activity % Stimulation Bulbo [2]: 4%; CX Agonistic activity % Stimulation SV [2]: 2%; CX Agonistic activity % Stimulation Prostate [2]: 0%; IC50 [4]: ~100 nM; share of the plasma exposure of EM-9150 [7]: approximately 90%; classification as antiandrogen or SARM (in words) (Androgen Receptor): antiandrogens

Reference: patent publication US9682960B2 (priority 2013, dated 2017)
